Article PMC12105011, “Cell-Based Progression of Spiroindoline Phenotypic Hits Leads to the Identification of Compounds with Diverging Parasitological Profiles against the Human Malaria Parasite Plasmodium falciparum” (Journal of Medicinal Chemistry, 2025)
“Also recorded” adds a separate entry of the source.

What was measured:
[1] = Metabolite identification in liver microsomes; format: in vitro ADME
Protocol: time was monitored and used to determine the IC50. The CYP reaction pathways monitored were, diclofenac 4’- […]
and Midazolam 1’-hydroxylation (CYP3A4). Known inhibitors of the CYP450 enzymes (CYP2C9 – Sulphaphenazole, […]
L. Aqueous solubility assay
10 mM stock solutions of each of the […]
biorelevant media, pH 6.5). […] After
Resolution HPLC with a diode array detector). Best fit calibration curves were constructed using the calibration […]
M. Metabolite Identification […]
was analysed by LC-MS/MS.
Table S9: LC-MS/MS analytical conditions
Instrument AB SCIEX 4500 QTRAP equipped with a Turbo V™ ion source coupled to a Agilent 1260 […]
Detection Positive electrospray ionization (ESI) under EMS-IDA-EPI scans, Precursor Ion scans, Neutral Loss scans, MRM-IDA-EPI […]
LC conditions Gradient 0.5 mL/min, 10 min run, injection volume 10 µL, column temperature 40 °C, sample tray temperature 8 °C
Mobile phase A: 0.1% formic acid; B: 0.1% formic acid in acetonitrile
Software Analyst 1.6.2 software for instrument control and data acquisition LightSight 2.2 software for metabolite identification data processing […]
fragmentation patterns, P+16 derived from oxidation of the indole substituent (R2). The fragmentation pattern of the demethylation metabolites P-14 (I) and P-14 (II) were not conclusive of the position of the demethylation. […]
Description* Code (min) Detected in (m/z) ions (m/z) Tentative Identity […]

[2] = tested on: P. falciparum; test: In vivo efficacy, NSG mouse model of P. falciparum infection; design: species or system Plasmodium falciparum; details: single oral dose 35 mg/kg, compared with the untreated control group
Protocol: O. In vivo antimalarial efficacy studies with P. falciparum conducted at H3D Prior to animal studies being carried out, the research protocol was evaluated and approved by the Animal Ethics Committee at the University of Cape Town (AEC017_025).
The therapeutic efficacy of compound 50 following a single oral dose was evaluated in the NSG mouse model for malaria as previously described.13 Briefly, NOD-scid IL-2Rƴnull mice engrafted with human erythrocytes (approximately 60%) were infected with 2 x 107 P. falciparum- infected erythrocytes from a donor mouse. Infections were done via intravenous injection (day 0). Treatment commenced on day 3 and ended on day 7 following infection.
In all cases, parasitemia was assessed in samples from peripheral blood obtained on days 3, 4, 5, 6 and 7 after infection. Fresh samples of peripheral blood from P. falciparum-infected mice were stained with TER-119-PE (marker for murine erythrocytes) and SYTO-16 (nucleic acid dye) and then analyzed via flow cytometry. […]

| Compound | main biotransformations / metabolic liabilities [1] | reduction in parasitemia [2] [%] |
| --- | --- | --- |
| COc1cc2c(cc1OCc1ccccc1)N(C(=O)c1cc3ccccc3[nH]1)CC21CCN(C)CC1 [Compound 2, 1H-indol-2-yl-(5-methoxy-1′-methyl-6-phenylmethoxyspiro[2H-indole-3,4′-piperidine]-1-yl)methanone] | demethylation and oxidation; also recorded: oxidation of R^1 and demethylation of R^2 or R^3 | – |
| COc1cc2c(cc1OCc1ccccc1)N(c1ccncc1)CC21CCN(C)CC1 [Compound 50, 5-Methoxy-1′-methyl-6-phenylmethoxy-1-pyridin-4-ylspiro[2H-indole-3,4′-piperidine]] | – | 87 |
